Laboratory results published in the NIST ThermoML archive (doi:10.1016/j.jct.2016.12.019).

Assay: xn = mol fraction of the nth substance listed
Conditions: 100 kPa, Liquid; for viscosity: Capillary tube (Ostwald / Ubbelohde) method; for speed of sound: Frequency=2 MHz, Linear variable-path acoustic interferometer; for mass density: Vibrating tube method

CCN(CC)c1ccccc1 [N,N-diethylaniline] + CCCCCCCCCCO
Conditions | mass density [kg/m3] | speed of sound [m/s] | viscosity [mPa·s]
303.15 K, x1 = 0.1141 | 831.36 | 1364.5 | 7.932
303.15 K, x1 = 0.2218 | 839.38 | 1366.8 | 6.521
303.15 K, x1 = 0.3717 | 852.13 | 1372.3 | 4.96
303.15 K, x1 = 0.4886 | 863.05 | 1378.1 | 4.007
303.15 K, x1 = 0.5815 | 872.51 | 1383.9 | 3.386
303.15 K, x1 = 0.6645 | 881.58 | 1390.1 | 2.918
303.15 K, x1 = 0.7545 | 892.16 | 1398.3 | 2.494
303.15 K, x1 = 0.8324 | 902.01 | 1406.8 | 2.185
303.15 K, x1 = 0.9121 | 912.85 | 1417.5 | 1.929
303.15 K, x1 = 1 | 925.8 | 1432 | 1.711
308.15 K, x1 = 0.1141 | 827.63 | 1345.2 | 6.651
308.15 K, x1 = 0.2218 | 835.9 | 1347.8 | 5.497
308.15 K, x1 = 0.3717 | 848.55 | 1353.7 | 4.217
308.15 K, x1 = 0.4886 | 859.44 | 1359.9 | 3.43
308.15 K, x1 = 0.5815 | 868.83 | 1366 | 2.914
308.15 K, x1 = 0.6645 | 877.84 | 1372.5 | 2.523
308.15 K, x1 = 0.7545 | 888.35 | 1380.9 | 2.167
308.15 K, x1 = 0.8324 | 898.14 | 1389.7 | 1.913
308.15 K, x1 = 0.9121 | 908.91 | 1400.6 | 1.705
308.15 K, x1 = 1 | 921.8 | 1416 | 1.537
313.15 K, x1 = 0.1141 | 824 | 1329.2 | 5.619
313.15 K, x1 = 0.2218 | 832.24 | 1331.8 | 4.671
313.15 K, x1 = 0.3717 | 844.85 | 1337.5 | 3.616
313.15 K, x1 = 0.4886 | 855.71 | 1343.5 | 2.963
313.15 K, x1 = 0.5815 | 865.07 | 1349.5 | 2.529
313.15 K, x1 = 0.6645 | 874.05 | 1355.7 | 2.199
313.15 K, x1 = 0.7545 | 884.52 | 1363.8 | 1.898
313.15 K, x1 = 0.8324 | 894.28 | 1372.3 | 1.687
313.15 K, x1 = 0.9121 | 905.03 | 1382.9 | 1.52
313.15 K, x1 = 1 | 917.9 | 1398 | 1.4
318.15 K, x1 = 0.1141 | 819.43 | 1320.2 | 4.835
318.15 K, x1 = 0.2218 | 827.69 | 1321.6 | 4.032
318.15 K, x1 = 0.3717 | 840.35 | 1326.2 | 3.137
318.15 K, x1 = 0.4886 | 851.26 | 1331 | 2.582
318.15 K, x1 = 0.5815 | 860.67 | 1336 | 2.21
318.15 K, x1 = 0.6645 | 869.69 | 1341.2 | 1.928
318.15 K, x1 = 0.7545 | 880.21 | 1348 | 1.672
318.15 K, x1 = 0.8324 | 890.03 | 1355.4 | 1.493
318.15 K, x1 = 0.9121 | 900.83 | 1364.7 | 1.359
318.15 K, x1 = 1 | 913.8 | 1378 | 1.276

CCN(CC)c1ccccc1 [N,N-diethylaniline] + CCCCCCCCO
Conditions | mass density [kg/m3] | speed of sound [m/s] | viscosity [mPa·s]
303.15 K, x1 = 0.1157 | 828.58 | 1338.2 | 5.469
303.15 K, x1 = 0.2012 | 836.5 | 1342.6 | 4.863
303.15 K, x1 = 0.3115 | 847.11 | 1349.2 | 4.178
303.15 K, x1 = 0.4221 | 858.24 | 1357.3 | 3.59
303.15 K, x1 = 0.5111 | 867.57 | 1364.9 | 3.18
303.15 K, x1 = 0.6217 | 879.68 | 1375.9 | 2.743
303.15 K, x1 = 0.7135 | 890.17 | 1386.8 | 2.433
303.15 K, x1 = 0.8063 | 901.22 | 1399.4 | 2.162
303.15 K, x1 = 0.9045 | 913.42 | 1414.7 | 1.915
303.15 K, x1 = 1 | 925.8 | 1432 | 1.711
308.15 K, x1 = 0.1157 | 824.98 | 1317.3 | 4.653
308.15 K, x1 = 0.2012 | 832.86 | 1321.9 | 4.155
308.15 K, x1 = 0.3115 | 843.43 | 1329.1 | 3.59
308.15 K, x1 = 0.4221 | 854.51 | 1337.7 | 3.132
308.15 K, x1 = 0.5111 | 863.81 | 1345.7 | 2.762
308.15 K, x1 = 0.6217 | 875.86 | 1357.3 | 2.397
308.15 K, x1 = 0.7135 | 886.3 | 1368.4 | 2.137
308.15 K, x1 = 0.8063 | 897.3 | 1381.4 | 1.913
308.15 K, x1 = 0.9045 | 909.45 | 1397.3 | 1.704
308.15 K, x1 = 1 | 921.8 | 1416 | 1.537
313.15 K, x1 = 0.1157 | 820.38 | 1300 | 3.991
313.15 K, x1 = 0.2012 | 828.3 | 1304.5 | 3.58
313.15 K, x1 = 0.3115 | 838.94 | 1311.6 | 3.112
313.15 K, x1 = 0.4221 | 850.09 | 1320.2 | 2.707
313.15 K, x1 = 0.5111 | 859.45 | 1328.2 | 2.422
313.15 K, x1 = 0.6217 | 871.58 | 1339.5 | 2.118
313.15 K, x1 = 0.7135 | 882.1 | 1350.5 | 1.899
313.15 K, x1 = 0.8063 | 893.18 | 1363.3 | 1.708
313.15 K, x1 = 0.9045 | 905.42 | 1379.3 | 1.536
313.15 K, x1 = 1 | 917.9 | 1398 | 1.4
318.15 K, x1 = 0.1157 | 815.85 | 1286.3 | 3.504
318.15 K, x1 = 0.2012 | 823.79 | 1290.4 | 3.151
318.15 K, x1 = 0.3115 | 834.47 | 1297 | 2.748
318.15 K, x1 = 0.4221 | 845.67 | 1304.9 | 2.398
318.15 K, x1 = 0.5111 | 855.06 | 1312.4 | 2.154
318.15 K, x1 = 0.6217 | 867.24 | 1323 | 1.889
318.15 K, x1 = 0.7135 | 877.8 | 1333.2 | 1.701
318.15 K, x1 = 0.8063 | 888.93 | 1345.1 | 1.535
318.15 K, x1 = 0.9045 | 901.24 | 1360.1 | 1.388
318.15 K, x1 = 1 | 913.8 | 1378 | 1.276

CCN(CC)c1ccccc1 [N,N-diethylaniline] + CCCCCCCCCO
Conditions | mass density [kg/m3] | speed of sound [m/s] | viscosity [mPa·s]
303.15 K, x1 = 0.1136 | 829.82 | 1359 | 6.563
303.15 K, x1 = 0.2326 | 840.12 | 1362.8 | 5.409
303.15 K, x1 = 0.3469 | 850.43 | 1367.6 | 4.509
303.15 K, x1 = 0.4541 | 860.76 | 1373.5 | 3.804
303.15 K, x1 = 0.5549 | 871.13 | 1380.2 | 3.248
303.15 K, x1 = 0.6498 | 881.45 | 1387.8 | 2.805
303.15 K, x1 = 0.7293 | 890.62 | 1395.3 | 2.488
303.15 K, x1 = 0.8244 | 902.24 | 1405.9 | 2.166
303.15 K, x1 = 0.9041 | 912.58 | 1416.7 | 1.938
303.15 K, x1 = 1 | 925.8 | 1432 | 1.711
308.15 K, x1 = 0.1136 | 826.24 | 1336.3 | 5.491
308.15 K, x1 = 0.2326 | 836.48 | 1340.6 | 4.557
308.15 K, x1 = 0.3469 | 846.76 | 1346.2 | 3.828
308.15 K, x1 = 0.4541 | 857.04 | 1352.7 | 3.252
308.15 K, x1 = 0.5549 | 867.33 | 1360.1 | 2.794
308.15 K, x1 = 0.6498 | 877.63 | 1368.3 | 2.427
308.15 K, x1 = 0.7293 | 886.75 | 1376.3 | 2.164
308.15 K, x1 = 0.8244 | 898.32 | 1387.7 | 1.898
308.15 K, x1 = 0.9041 | 908.61 | 1399.2 | 1.714
308.15 K, x1 = 1 | 921.8 | 1416 | 1.537
313.15 K, x1 = 0.1136 | 822.7 | 1315.3 | 4.791
313.15 K, x1 = 0.2326 | 832.9 | 1320 | 3.988
313.15 K, x1 = 0.3469 | 843.13 | 1325.9 | 3.362
313.15 K, x1 = 0.4541 | 853.37 | 1332.7 | 2.867
313.15 K, x1 = 0.5549 | 863.63 | 1340.4 | 2.471
313.15 K, x1 = 0.6498 | 873.88 | 1348.9 | 2.154
313.15 K, x1 = 0.7293 | 882.96 | 1357.1 | 1.926
313.15 K, x1 = 0.8244 | 894.48 | 1368.8 | 1.697
313.15 K, x1 = 0.9041 | 904.74 | 1380.6 | 1.541
313.15 K, x1 = 1 | 917.9 | 1398 | 1.4
318.15 K, x1 = 0.1136 | 817.68 | 1295.7 | 3.979
318.15 K, x1 = 0.2326 | 827.96 | 1300.3 | 3.341
318.15 K, x1 = 0.3469 | 838.28 | 1306.2 | 2.843
318.15 K, x1 = 0.4541 | 848.61 | 1312.9 | 2.447
318.15 K, x1 = 0.5549 | 858.95 | 1320.6 | 2.128
318.15 K, x1 = 0.6498 | 869.3 | 1328.9 | 1.869
318.15 K, x1 = 0.7293 | 878.48 | 1337.1 | 1.683
318.15 K, x1 = 0.8244 | 890.11 | 1348.6 | 1.498
318.15 K, x1 = 0.9041 | 900.48 | 1360.3 | 1.377
318.15 K, x1 = 1 | 913.8 | 1378 | 1.276
